In assay [1] the test system is RVH-421 (Melanoma). As to the kind of experiment: combination Emax (second highest fraction inhibited in the dose matrix, 72 h); higher = more inhibition; extreme values may be limits of the assay. The gist of the method: (§1)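 Cell lines grown in DMEM/F12 or RPMI with 10% FBS were plated in 1536-well plates and held 24 hours at 37°C, 5% CO2 before 72 hours of exposure to two-drug dose matrices, with DMSO typically at 0.2%. CellTiter-Glo 2.0 luminescence gave viability, which was converted to inhibition. Vehicle wells were set to 0 and blank wells to 1. Combination Emax is the second-highest inhibition in the matrix, and Bliss excess is the observed combination effect minus the expected EA + EB − EA·EB, where EA and EB are the single-agent effects.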

Assay [2] has as its system HT-1197 (Bladder Carcinoma). Kind of assay: Bliss excess, mean over the matrix (fraction); higher = more synergy. The gist of the method:
as §1

Assay [3] deals with BT-474 (Breast Carcinoma). Described as above. The method in brief: as §1
The subject of assay [4] is TOV-21G (Ovarian Carcinoma). The assay is described as above. The method in brief: as §1
Assay [5] relates to SK-MEL-24 (Melanoma). The assay is described as above. The method in brief: as §1
The subject of assay [6] is NCI-H1048 (Small Cell Lung Carcinoma). The assay is described as above. The method in brief:
as §1

The test system of assay [7] is SW1463 (Colorectal Carcinoma). Described as above. The gist of the method:
as §1

The test system of assay [8] is C32 (Melanoma). The description is as above. The method in brief:
as §1

For assay [9], the system named is OVKATE (Ovarian Carcinoma). The description is as above. The method in brief: as §1
Assay [10] concerns NCI-H2023 (Non-Small Cell Lung Carcinoma). Described as above. The method in brief: as §1
Assay [11] deals with DK-MG (Glioblastoma). The description is as above. The gist of the method:
as §1

For assay [12], the system named is SNU-1 (Gastric Carcinoma). The description is as above. The gist of the method: as §1
Assay [13] relates to A375 (Melanoma). Described as above. The method in brief:
as §1

Assay [14] deals with KNS-62 (Squamous Cell Lung Carcinoma). The assay is described as above. The method in brief: as §1
Assay [15] concerns RVH-421 (Melanoma). The description is as above. The method in brief: as §1
Assay [16] concerns MDA-MB-175-VII (Breast Carcinoma). Described as above. The gist of the method:
as §1

For `CCN(CCO)CCCOc1ccc2c(Nc3cc(CC(=O)Nc4cccc(F)c4)[nH]n3)ncnc2c1` [AZD2811] + O=C(c1cc(Cc2n[nH]c(=O)c3ccccc23)ccc1F)N1CCN(C(=O)C2CC2)CC1 [Olaparib] (first compound max 1 µM, 7x7, partner max 10 µM), in assay [1], the “combination Emax” value was found to be 0.176. For the same molecule, the Bliss excess is 0.0045 in assay [2]; -0.0079 in assay [3]; 0.0352 in [4]; -0.0339 in assay [5]; -0.0161 in [6]; 0.0014 in assay [7]. Further, the Bliss excess in assay [8] was -0.0056; in assay [9], -0.0481; in assay [10], -0.0737; in assay [11], 0.0024; in assay [12], 0.0233; in assay [13] it was 0.0039. Moreover, the Bliss excess was -0.0171 in [14], -0.0685 in assay [15] and -0.0012 in assay [16].

As to `Cc1c2c(nn1C)CSCc1cc(n(C)n1)CSc1cc(c3ccccc3c1)OCCCc1c(C(=O)O)n(C)c3c-2c(Cl)ccc13` [AZD5991] + Cc1cc2ncnn2cc1Nc1ncc2c(n1)n(C1CCOCC1)c(=O)n2C [AZD7648] (first compound max 1 µM, 7x7, partner max 10 µM), the “combination Emax” value in assay [1] was 0.255. The Bliss excess in assay [2] was -0.059; in [3], -0.0305; in [4], -0.0461; in assay [5] it was -0.0134; in assay [6], -0.0227; in assay [7], -0.015. The Bliss excess was -0.0308 in assay [8]; -0.0347 in assay [9]; -0.0423 in assay [10]; -0.101 in assay [11]; -0.0307 in [12]; -0.0244 in [13]. Moreover, the Bliss excess was 0.0266 in [14], -0.0432 in assay [15] and -0.0055 in assay [16].

For `CC1(C)CCC(CN2CCN(c3ccc(C(=O)NS(=O)(=O)c4ccc(NCC5CCOCC5)c([N+](=O)[O-])c4)c(Oc4cnc5[nH]ccc5c4)c3)CC2)=C(c2ccc(Cl)cc2)C1` [Venetoclax] + C[C@@H]1COCCN1C2=NC(=NC(=C2)C3(CC3)[S@](=N)(=O)C)C4=C5C=CNC5=NC=C4 [AZD6738] (first compound max 1 µM, 7x7, partner max 10 µM), the “combination Emax” value in assay [1] is 0.26. Besides, the Bliss excess in [2] was -0.0033; in assay [3], -0.0265; in assay [4], -0.0256; in assay [5], -0.0429; in assay [6], 0.0276; in assay [7], -0.06. For the same molecule, the Bliss excess in assay [8] was -0.0229; in [9], -0.0291; in assay [10], -0.0671; in [11], -0.0914; in assay [12], -0.0114; in assay [13], -0.0308. The Bliss excess in assay [14] is -0.121; in assay [15] it was -0.0286; in assay [16] it was -0.0433.

`CCN(CCO)CCCOc1ccc2c(Nc3cc(CC(=O)Nc4cccc(F)c4)[nH]n3)ncnc2c1` [AZD2811] + C=CCn1c(=O)c2cnc(Nc3ccc(N4CCN(C)CC4)cc3)nc2n1-c1cccc(C(C)(C)O)n1 [AZD1775] (first compound max 1 µM, partner max 1 µM): the “combination Emax” value in assay [1] is 0.0949. In addition, the Bliss excess is -0.114 in assay [2]; -0.0442 in assay [3]; 0.0317 in assay [4]; -0.0378 in assay [5]; 0.0662 in assay [6]; -0.0023 in assay [7]. In addition, the Bliss excess in [8] was -0.0354; in [9], -0.0565; in [10], 0.0031; in assay [11] it was 0.0373; in assay [12] it was 0.0679; in assay [13] it was 0.0143. In addition, the Bliss excess in assay [14] was -0.0339; in [15], -0.0694; in [16], -0.0427.

With `Cc1c2c(nn1C)CSCc1cc(n(C)n1)CSc1cc(c3ccccc3c1)OCCCc1c(C(=O)O)n(C)c3c-2c(Cl)ccc13` [AZD5991] + C[C@@H]1COCCN1C2=NC(=NC(=C2)C3(CC3)[S@](=N)(=O)C)C4=C5C=CNC5=NC=C4 [AZD6738] (first compound max 1 µM, 7x7, partner max 10 µM), the “combination Emax” value in assay [1] was 0.265. The Bliss excess is -0.104 in assay [2]; 0.0367 in assay [3]; 0.0322 in assay [4]; 0.0025 in assay [5]; 0.0445 in assay [6]; -0.023 in assay [7]. The Bliss excess in assay [8] is 0.0531; in assay [9], -0.0421; in [10] it was -0.0078; in assay [11], 0.046; in assay [12], 0.035; in [13], 0.0291. The Bliss excess was 0.0235 in assay [14], 0.013 in [15] and 0.0187 in [16].

`CC1(C)CCC(CN2CCN(c3ccc(C(=O)NS(=O)(=O)c4ccc(NCC5CCOCC5)c([N+](=O)[O-])c4)c(Oc4cnc5[nH]ccc5c4)c3)CC2)=C(c2ccc(Cl)cc2)C1` [Venetoclax] + COc1cc(Nc2ncc3c(n2)-c2ccc(Cl)cc2C(c2c(F)cccc2OC)=NC3)ccc1C(=O)O [Alisertib] (first compound max 1 µM, 7x7, partner max 10 µM): in assay [1], the “combination Emax” value is 0.0752. Also, the Bliss excess in [2] was -0.0358; in assay [3], -0.0136; in assay [4] it was -0.006; in [5] it was -0.0132; in assay [6] it was 0.0987; in [7], 0.017. For the same molecule, the Bliss excess in [8] was 0.0269; in assay [9], -0.0154; in [10], -0.0679; in assay [11], -0.0012; in assay [12], -0.0103; in [13] it was 0.0294. The Bliss excess was -0.0512 in assay [14], -0.058 in assay [15] and -0.0221 in [16].

With `CN(C)CCCOc1ccc(-c2ccc3ncc4c(c3c2)n(C2CCOCC2)c(=O)n4C)cn1` [AZD0156] + C=CCn1c(=O)c2cnc(Nc3ccc(N4CCN(C)CC4)cc3)nc2n1-c1cccc(C(C)(C)O)n1 [AZD1775] (first compound max 1 µM, partner max 1 µM), the “combination Emax” value in assay [1] is 0.161. In addition, the Bliss excess in assay [2] is -0.102; in assay [3] it was -0.0647; in assay [4], 0.0044; in assay [5], -0.0255; in assay [6], -0.0815; in [7] it was -0.0323. The Bliss excess in assay [8] was -0.0348; in assay [9] it was -0.0601; in assay [10] it was 0.0007; in assay [11] it was -0.0003; in assay [12] it was -0.003; in assay [13] it was -0.0275. In addition, the Bliss excess in assay [14] was -0.0373; in assay [15] it was -0.0576; in assay [16] it was -0.0589.

Values taken from the supplement of paper PMC11061612.
